# Source: the supplement of paper PMC10307832
# Tests used:
# Experiment in all cases: relative viability (nuclei count vs DMSO), 5 days (fraction); higher = more cells survive
# AZD5582 = compound: C[C@@H](C(=O)N[C@@H](C1CCCCC1)C(=O)N2CCC[C@H]2C(=O)N[C@@H]3[C@@H](CC4=CC=CC=C34)OCC#CC#CCO[C@@H]5CC6=CC=CC=C6[C@@H]5NC(=O)[C@@H]7CCCN7C(=O)[C@H](C8CCCCC8)NC(=O)[C@H](C)NC)NC [AZD5582]
# Procedure, shortened: (§1)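 On vehicle-anchored 1536-well plates, lung cancer cell lines held overnight at 37 °C were pinned with five library-drug doses (not always all listed) spaced by √10. With no medium change over 5 days, they were then fixed, permeabilised and Hoechst-stained in one step and imaged at 4×. MetaXpress counted nuclei, and viability is the median across plates of treated-well over vehicle-well nuclei. Acceptance needed control CV below 25% and at least one doubling.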
# Temozolomide = compound: Cn1nnc2c(C(N)=O)ncn2c1=O [Temozolomide]
# Procedure, shortened: as §1
# [1] = compound: Cn1nnc2c(C(N)=O)ncn2c1=O [Temozolomide] + CC(C)C[C@H](NC(=O)[C@H](Cc1ccccc1)NC(=O)c1cnccn1)B(O)O [Bortezomib] (partner 0.002 µM)
# Procedure, shortened: (§2)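 Values are medians from duplicate plates. Each reflects relative viability, defined as the nuclei count of treated wells over that of vehicle wells. Lung cancer cell lines in 1536-well plates were pin-tool dosed one day after seeding with one drug alone or with a fixed anchor-drug dose plus five library-drug doses (not always all listed) in √10 steps, then fixed, stained and imaged at 4× after 5 days.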
# AZD5582 + Alpelisib = compound: C[C@@H](C(=O)N[C@@H](C1CCCCC1)C(=O)N2CCC[C@H]2C(=O)N[C@@H]3[C@@H](CC4=CC=CC=C34)OCC#CC#CCO[C@@H]5CC6=CC=CC=C6[C@@H]5NC(=O)[C@@H]7CCCN7C(=O)[C@H](C8CCCCC8)NC(=O)[C@H](C)NC)NC [AZD5582] + Cc1nc(NC(=O)N2CCC[C@H]2C(N)=O)sc1-c1ccnc(C(C)(C)C(F)(F)F)c1 [Alpelisib] (partner 2 µM)
# Procedure, shortened: as §2
Cell Line,relative viability (AZD5582; 0.001581 µM),relative viability (AZD5582; 0.005 µM),relative viability (AZD5582; 0.01581 µM),relative viability (AZD5582; 0.05 µM),relative viability (Temozolomide; 0.2 µM),relative viability (Temozolomide; 0.6325 µM),relative viability (Temozolomide; 2 µM),relative viability (Temozolomide; 6.325 µM),relative viability (Temozolomide; 20 µM),relative viability ([1]; first compound 0.2 µM),relative viability ([1]; first compound 0.6325 µM),relative viability ([1]; first compound 2 µM),relative viability ([1]; first compound 6.325 µM),relative viability ([1]; first compound 20 µM),relative viability (AZD5582 + Alpelisib; first compound 0.001581 µM),relative viability (AZD5582 + Alpelisib; first compound 0.005 µM),relative viability (AZD5582 + Alpelisib; first compound 0.01581 µM),relative viability (AZD5582 + Alpelisib; first compound 0.05 µM)
NCI-H1755,0.939,0.99,0.946,1.05,1.08,0.971,1.04,0.965,0.818,0.961,0.952,1.01,0.897,0.84,0.875,0.918,0.874,0.996
NCI-H1666,0.886,0.953,0.971,0.94,0.92,0.994,0.906,0.751,0.76,0.779,0.9,0.595,0.647,0.416,0.851,0.833,1.08,1.03
IA-LM,0.77,0.86,0.828,0.897,1.11,0.94,1,0.961,0.951,0.794,0.988,1.04,0.742,0.945,0.686,0.71,0.844,0.686
UMC-11,0.887,1.01,0.96,1.03,0.994,1.06,1.05,0.858,0.677,0.861,0.924,0.945,0.519,0.377,1.05,1.11,0.968,1.08
HCC-78,0.85,1.08,0.834,0.746,0.762,0.937,1.04,0.906,0.931,–,0.524,0.537,0.515,0.567,0.298,0.395,0.307,0.3
NCI-H1651,0.932,1.01,0.952,1.13,0.983,0.997,0.984,0.997,0.993,1.01,0.975,0.989,0.915,0.898,1.03,1.02,0.855,1.15
NCI-H2347,0.956,1.03,0.919,0.979,1.06,1.16,1.08,0.979,0.976,1.34,1.05,0.995,0.836,1.07,0.901,1.05,0.975,0.991
HOP-62,0.875,1.03,1.04,1.06,1.11,0.997,1.04,0.926,1.01,0.801,0.88,0.911,0.59,0.932,0.997,0.934,0.87,1.25
NCI-H1993,0.758,1.1,0.957,1,0.866,0.968,0.953,0.944,0.758,0.944,1.19,1.14,1.07,0.736,0.706,0.669,0.647,0.671
HCC-15,0.862,0.933,0.739,0.847,1.12,1.01,1,0.996,1.07,1.02,1.06,1.05,0.975,1.1,0.771,0.648,0.922,0.555
NCI-H1437,0.915,1,0.979,0.983,0.998,1.01,0.997,1.04,1.02,0.453,0.42,0.648,0.409,0.452,0.968,0.967,0.875,1.04
